Source: patent US20160194358A1, “LINEAR PEPTIDE ANTIBIOTCS” (priority 2013, published 2016)
≈ marks a conversion by molar mass, not a printed value. Like-named read-outs stand apart in the source and are kept apart here. *1 amine or outer side, *2 acyl side, *3 side chain or, on linkers, in order; H or OH if unused. Where a SMILES comes first, the peptide text is derived from it. [ ]: non-standard residue; d: D form. The star is where a group is joined. ξ: configuration not given here. boroAla((+)-pinanediol) = C[C@H](N*)B1O[C@@H]2C[C@@H]3C[C@@H](C3(C)C)[C@]2(C)O1; Biphenylcarbonyl(4'-Bu) = CCCCc1ccc(-c2ccc(C(=O)*)cc2)cc1; Benzoyl(4-(4-Cl-Ph)) = O=C(c1ccc(-c2ccc(Cl)cc2)cc1)*; ξ3Amino2oxobutanoyl = CC(N[*:1])C(=O)C(=O)[*:2]; X1 = C[C@H](N[*:1])C(=O)C(=O)[*:2]; X15 = Cc1nnc(C(=O)[C@H](C)N*)o1; Thr(3ξ) = CC(O)[C@H](N)C(=O)O; X2 = C[C@H](N*)C(=O)c1ncco1; Decanoyl = CCCCCCCCCC(=O)*; X4 = c1ccc(C2CCN(*)CC2)cc1; X6 = NCCCCCCCCCCCCCCC(=O)*; Dab = NCC[C@H](N)C(=O)O; Dap = NC[C@H](N)C(=O)O; CO = O=C([*:1])[*:2]; βAla = NCCC(=O)O; Sar = CNCC(=O)O; NHBu = CCCCN*; X13 = COCCCN*

Key:
E. coli SPase = molecular target: T1, E. coli SPase (Escherichia coli, UniProt P00803); assay: Biochemical SPase activity assay, fluorogenic peptide substrate, E. coli enzyme; settings: 20 μM substrate, 10 minutes preincubation, read-out: IC 50 (nM) E. coli
T1 construct: Full length His-tagged E. coli SPase proteins; His; made in house; host or cells: E. coli BL21(DE3)
T1 sequence (P00803 whole entry): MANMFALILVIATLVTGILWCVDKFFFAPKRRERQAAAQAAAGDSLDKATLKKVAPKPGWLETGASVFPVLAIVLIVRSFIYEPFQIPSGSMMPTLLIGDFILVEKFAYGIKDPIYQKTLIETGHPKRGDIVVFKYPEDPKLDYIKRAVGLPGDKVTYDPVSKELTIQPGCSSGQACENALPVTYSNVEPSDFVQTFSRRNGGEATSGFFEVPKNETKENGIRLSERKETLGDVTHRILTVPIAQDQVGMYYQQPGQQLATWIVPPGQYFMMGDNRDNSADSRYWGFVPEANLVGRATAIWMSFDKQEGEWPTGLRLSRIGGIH
Description: Full length His-tagged E. coli SPase proteins were expressed in E. coli BL21(DE3) containing the plasmid pET23-lepB. Briefly, saturated overnight cultures grown in 20 ml of Luria-Bertani medium supplemented with ampicillin were subcultures into 1.5 L of Luria-Bertani, and shaken at 37° C. until an optical density at 600 nm of 0.4-0.5 was achieved.
(§1) Signal peptidase enzyme activity of the above proteins was measured using two fluorogenic peptide substrates (decanoyl-LSSPAYNO2A ? ADKabzPD and decanoyl-LTPTAYNO2A ? ASKKabzDD), where abz is the fluorescence donor 2-aminobenzamide, YNO2 is the fluorescence acceptor 3-nitrotyrosine, and the cleavage site is indicated with an arrow. Enzyme mix solution was prepared by diluting 2.5 nM of Escherichia coli or Staphylococcus aureus SPase protein into reaction buffers consisting of 20 mM PO4 pH 7.4, 100 mM NaCl, and 1% Elugent™ or octyl phenoxypolyethoxylethanol detergent at a concentration of 0.25% or 0.0625%. Reactions were initiated by the addition of substrate to a final concentration of 20 μM. Reaction progress was monitored by measuring the increase in fluorescence signal (excitation at 314 nm, emission at 416 nm) using a SpectraMax M2 fluorescence microplate reader. To determine IC50 values of test compounds, compound stock solutions were prepared in DMSO at a concentration of 1 mM. Three-folder serial dilutions of test compounds, starting at 10 μM, were prepared in enzyme mix solution and incubated at room temperature for 10 minutes. Following this incubation, fluorogenic substrate was added to a final concentration of 20 μM and the increase in fluorescence, corresponding to substrate cleavage, was monitored continuously at room temperature for 1 hour. Initial reaction rates were calculated based on the rate of increase in fluorescence during the reaction. Reaction rates were plotted as a function of compound concentration, and IC50 values are determined nonlinear regression analysis (SoftMaxPro 5.4, Molecular Devices™) of the sigmoidal dose-response curve.

[1] = tested on: methicillin resistant Staphylococcus aureus (MRSA) strain USA300 (NRS384); settings: MRSA USA300 (NRS384), 35° C., 22 hours
Procedure, shortened: (§2)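 CLSI broth microdilution in cation-adjusted Mueller Hinton Broth with 0.002% Tween-80, two-fold dilutions starting at 64 μg/ml.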

[2] = tested on: Escherichia coli strain MC4100 IMP-4213, which harbors an LptD mutation; settings: E. coli MC4100 IMP-4213, 35° C., 22 hours
Procedure, shortened: as §2

S. aureus SPase = S. aureus SPase (Staphylococcus aureus, UniProt P0A070); assay: biochemical; settings: IC 50 (nM) S. aureus, 20 μM substrate, 10 minutes preincubation
S. aureus SPase, sequence (P0A070 whole entry): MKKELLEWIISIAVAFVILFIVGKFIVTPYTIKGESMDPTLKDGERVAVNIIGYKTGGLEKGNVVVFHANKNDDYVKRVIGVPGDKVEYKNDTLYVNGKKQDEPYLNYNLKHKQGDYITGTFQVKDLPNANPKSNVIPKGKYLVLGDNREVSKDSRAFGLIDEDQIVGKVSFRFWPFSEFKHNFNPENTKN
Description: Full length His-tagged S. aureus SPase protein was expressed similarly from E. coli BL21(DE3) containing the plasmid pCDF1-SaSpsB and purified similarly to the E. coli protein with the following exceptions. SPase protein was solubilized using 300 mM NaCl, 20 mM Tris pH 8.06, 5 mM Imidazole, 10% glycerol, 1% Triton X-100, prior to purification in Ni-NTA Superflow resin and resin bound protein was washed in a similar buffer containing 1% Elugent in place of Triton X-100 prior to protein eluted in wash buffer supplemented with 300 mM imidazole. […] All protein concentrations were determined by BCA assay.
as §1

Structure (SMILES) | IC50 (E. coli SPase) [nM] | MIC (μg/mL) S. aureus [1] [µg/mL] | MIC (μg/mL) E. coli [2] [µg/mL] | IC50 (S. aureus SPase) [nM] | MIC (μg/mL) S. aureus ([1]; listed as 207 P1) [µg/mL] | MIC (μg/mL) E. coli ([2]; listed as 207 P1) [µg/mL] | MIC (μg/mL) S. aureus ([1]; listed as 203 P1) [µg/mL] | MIC (μg/mL) E. coli ([2]; listed as 203 P1) [µg/mL]
C[C@H](NC(=O)[C@H](CCCCN)NC(=O)[C@H](C)NC(=O)[C@@H](NC(=O)[C@H](CCCCN)NC(=O)N1CCC(c2ccccc2)CC1)[C@@H](C)O)B1O[C@@H]2C[C@@H]3C[C@@H](C3(C)C)[C@]2(C)O1 [Compound 126] ({X4-CO}-KTAK-{boroAla((+)-pinanediol)}) | 230 | 64 (≈ 76.3 µM) | >64 | 250 |  |  |  | 
CCNC(=O)C(=O)[C@H](C)NC(=O)[C@H](CCCCN)NC(=O)[C@H](C)NC(=O)[C@@H](NC(=O)[C@H](CN)NC(=O)c1ccc(-c2ccc(Cl)cc2)cc1)[C@@H](C)O [Compound 102] ({Benzoyl(4-(4-Cl-Ph))}-[Dap]TAK[X1]-NHEt) | 440 | 32 (≈ 42.9 µM) | >64 | 580 |  |  |  | 
Cc1nnc(C(=O)[C@H](C)NC(=O)[C@H](CCCCN)NC(=O)[C@H](C)NC(=O)[C@H](CCCCN)NC(=O)[C@H](CN)NC(=O)c2ccc(-c3ccc(Cl)cc3)cc2)o1 [Compound 213] ({Benzoyl(4-(4-Cl-Ph))}-[Dap]KAK-X15) | 49 | 32 (≈ 40.9 µM) | 64 (≈ 81.7 µM) | > 10000 |  |  |  | 
C[C@H](NC(=O)[C@@H](NC(=O)[C@H](CN)NC(=O)c1ccc(-c2ccc(Cl)cc2)cc1)[C@@H](C)O)C(=O)N[C@@H](CCCCN)C(=O)N[C@@H](C)C(=O)c1ncco1 [Compound 212] ({Benzoyl(4-(4-Cl-Ph))}-[Dap]TAK-X2) | 34 | 45 (≈ 60.7 µM) | 64 (≈ 86.3 µM) | 2600 |  |  |  | 
C[C@H](NC(=O)[C@H](CCCCN)NC(=O)[C@H](C)NC(=O)[C@@H](NC(=O)[C@H](CCN)NC(=O)CCCCCCCCCCCCCCN)[C@@H](C)O)B1O[C@@H]2C[C@@H]3C[C@@H](C3(C)C)[C@]2(C)O1 [Compound 116] (X6-[Dab]TAK-{boroAla((+)-pinanediol)}) | 200 | 1.4 (≈ 1.62 µM) | 32 (≈ 37.1 µM) | 480 |  |  |  | 
CCCCNC(=O)C(=O)[C@H](C)NC(=O)[C@H](CCCCN)NC(=O)[C@H](C)NC(=O)[C@@H](NC(=O)[C@H](CN)NC(=O)c1ccc(-c2ccc(Cl)cc2)cc1)[C@@H](C)O [Compound 105] ({Benzoyl(4-(4-Cl-Ph))}-[Dap]TAK[X1]-NHBu) | 900 | 51 (≈ 65.9 µM) | 64 (≈ 82.8 µM) | 1300 |  |  |  | 
COCCCNC(=O)C(=O)[C@H](C)NC(=O)[C@H](CCCCN)NC(=O)[C@H](C)NC(=O)[C@@H](NC(=O)[C@H](CN)NC(=O)c1ccc(-c2ccc(Cl)cc2)cc1)[C@@H](C)O [Compound 101] ({Benzoyl(4-(4-Cl-Ph))}-[Dap]TAK[X1]-X13) | 870 | >64 | >64 | 1600 |  |  |  | 
CCCCc1ccc(-c2ccc(C(=O)N[C@@H](CCN)C(=O)N(C)CC(=O)N[C@@H](C)C(=O)N[C@@H](CCCCN)C(=O)N[C@@H](C)B3O[C@@H]4C[C@@H]5C[C@@H](C5(C)C)[C@]4(C)O3)cc2)cc1 [Compound 124] ({Biphenylcarbonyl(4'-Bu)}-[Dab][Sar]AK-{boroAla((+)-pinanediol)}) | 110 | 0.8 (≈ 0.964 µM) | 0.6 (≈ 0.723 µM) | 2000 |  |  |  | 
CCCCCCCCCC(=O)NCCC(=O)N[C@@H](CCCCN)C(=O)N[C@H](C(=O)N[C@@H](C)C(=O)N[C@@H](CC(N)=O)C(=O)NC(C)C(=O)C(=O)NC)C(C)O (some centres unmarked) [Compound 106] ({Decanoyl-βAla}-K[Thr(3ξ)]AN[ξ3Amino2oxobutanoyl]-NHMe) | 6200 | >64 | >64 | 45 |  |  |  | 
CCCCc1ccc(-c2ccc(C(=O)N[C@@H](CCN)C(=O)N[C@H](C(=O)N[C@@H](C)C(=O)N[C@@H](CCCCN)C(=O)N[C@@H](C)C(=O)C3(C)CO3)[C@@H](C)O)cc2)cc1 (single isomer, unassigned) [Compound 207 P1] | 1800 |  |  | 1400 | 5.7 (≈ 7.44 µM) | 8 (≈ 10.4 µM) |  | 
CCCCc1ccc(-c2ccc(C(=O)N[C@@H](CCN)C(=O)N[C@H](C(=O)N[C@@H](C)C(=O)N[C@@H](CCCCN)C(=O)N[C@@H](C)C(=O)C3OC3C)[C@@H](C)O)cc2)cc1 (single isomer, unassigned) [Compound 203 P1] | 440 |  |  | 95 |  |  | 1.2 (≈ 1.57 µM) | 11 (≈ 14.4 µM)
